Results on 28 compounds are retold here after patent publication US20240383886A1, “Protein Tyrosine Phosphatase Degraders and Methods of Use Thereof” (CALICO LIFE SCIENCES LLC, priority 2019, published 2024).

For experiment [1], the target named is T1, PTPN2 (Homo sapiens, UniProt P17706).
T1 construct: expressed in transfected cells; host or cells: 293T (293T.109 HiBiT-PTPN2 line; parental 293T WT from ATCC)
T1 sequence (P17706 1-415): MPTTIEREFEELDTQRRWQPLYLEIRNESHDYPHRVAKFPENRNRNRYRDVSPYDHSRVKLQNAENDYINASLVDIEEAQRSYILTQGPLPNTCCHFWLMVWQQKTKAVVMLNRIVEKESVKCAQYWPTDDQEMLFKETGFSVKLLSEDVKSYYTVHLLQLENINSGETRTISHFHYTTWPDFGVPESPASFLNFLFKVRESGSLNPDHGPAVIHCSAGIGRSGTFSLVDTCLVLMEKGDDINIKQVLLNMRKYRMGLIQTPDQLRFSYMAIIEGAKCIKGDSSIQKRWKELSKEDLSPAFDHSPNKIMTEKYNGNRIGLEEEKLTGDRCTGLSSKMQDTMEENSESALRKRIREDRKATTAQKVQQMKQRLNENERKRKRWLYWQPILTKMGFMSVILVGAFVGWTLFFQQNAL
Nature of the experiment: HiBiT-Degradation 293T.109 PTPN2 (Nano-Glo HiBiT Lytic Assay). The class given is cell-based. Conditions: 293T.109 (HiBiT-PTPN2) cells, 24.0 hours. From the text: Dulbecco's modified Eagle medium (DMEM) without phenol red and fetal bovine serum (FBS) were purchased from Gibco (Grand Island, NY, USA). Nano-Glo® HiBIT Lytic Assay System was purchased from Promega (Madison, WI, USA). 293T.109 (HiBiT-PTPN2) cell line was generated by ectopically expressing PTPN2 with N-terminal HiBiT fusion tag in 293T WT cell line purchased from ATCC (Manassas, VA, USA). Cell culture flasks and 384-well microplates were acquired from VWR (Radnor, PA, USA).
PTPN2 degradation was determined based on quantification of luminescent signal using Nano-Glo® HiBIT Lytic Assay kit. Test compounds were added to the 384-well plate from a top concentration of 10 μM with 11 points, half log titration in duplicates. 293T.109 cells were added into 384-well plates at a cell density of 5000 cells per well. The plates were kept at 37° C. with 5% CO2 for 24 hours. The cells treated in the absence of the test compound were the negative control and the cells without Nano-Glo® HiBiT Lytic reagent were the positive control. After 24-hour incubation, Nano-Glo® HiBIT Lytic Assay reagents were added to the cells. Luminescence was acquired on EnVision™ Multilabel Reader (PerkinElmer, Santa Clara, CA, USA).
A general note: HiBiT is a short tag that completes a luciferase, so light tracks the accessible tagged protein.

For experiment [2], the system named is PTPN2. Nature of the experiment: HiBiT-Degradation B16F10.4 PTPN2. The class given is cell-based. The following applies: B16F10.4 cells, 24.0 hours.

Bounds are passed on as bounds.

The DC50 is the concentration at which degradation of the target reaches its halfway point. On to `Cn1nc(C2CCC(=O)NC2=O)c2ccc(C3CCN(CC(=O)Nc4ccc5c(F)c(N6CC(=O)NS6(=O)=O)c(O)cc5c4)CC3)cc21` (centres unmarked) [Example 28, 2-[4-[3-(2,6-dioxo-3-piperidyl)-1-methyl-indazol-6-yl]-1-piperidyl]-N-[5-fluoro-7-hydroxy-6-(1,1,4-trioxo-1,2,5-thiadiazolidin-2-yl)-2-naphthyl]acetamide], for which the figures for the DC50 in experiment [1] and in experiment [2] were < 10 nM and 50 to 200 nM, respectively.
Taken in the same sequence, the figures for `Cn1c(=O)n(C2CCC(=O)NC2=O)c2ccc(C3CCN(CCNC(=O)c4ccc5c(F)c(N6CC(=O)NS6(=O)=O)c(O)cc5c4)CC3)cc21` (centres unmarked) [Example 29, N-[2-[4-[1-(2,6-dioxo-3-piperidyl)-3-methyl-2-oxo-benzimidazol-5-yl]-1-piperidyl]ethyl]-5-fluoro-7-hydroxy-6-(1,1,4-trioxo-1,2,5-thiadiazolidin-2-yl)naphthalene-2-carboxamide] were < 10 nM and 50 to 200 nM.
Taken in the same sequence, the figures for `Cn1c(=O)n(C2CCC(=O)NC2=O)c2ccc(C3CCN(C(=O)CCC(=O)NCCOc4ccc5cc(O)c(N6CC(=O)NS6(=O)=O)c(F)c5c4)CC3)cc21` (centres unmarked) [Example 30] were ≥ 1000 nM and ≥ 1000 nM.
Consider `Cn1c(=O)n(C2CCC(=O)NC2=O)c2ccc(C3CCN(C(=O)NCCOc4ccc5cc(O)c(N6CC(=O)NS6(=O)=O)c(F)c5c4)CC3)cc21` (centres unmarked) [Example 31], for which the DC50 in experiment [1] was 200 to 1000 nM; in experiment [2], ≥ 1000 nM.
Taken in the same sequence, the figures for `O=C1CCC(N2Cc3c(OCC(=O)N4CCC(C(=O)N5CC(Oc6ccc7cc(O)c(N8CC(=O)NS8(=O)=O)c(F)c7c6)C5)CC4)cccc3C2=O)C(=O)N1` (centres unmarked) [Example 32] were 200 to 1000 nM and 200 to 1000 nM.
Take `Cn1c(=O)n(C2CCC(=O)NC2=O)c2cccc(C3CCN(CC(=O)NCCOc4ccc5cc(O)c(N6CC(=O)NS6(=O)=O)c(F)c5c4)CC3)c21` (centres unmarked) [Example 33]: the figures for the DC50 in experiment [1] and in experiment [2] were 200 to 1000 nM and ≥ 1000 nM, respectively.
The corresponding values for `Cn1c(=O)n(C2CCC(=O)NC2=O)c2ccc(CCC(=O)NCCOc3ccc4cc(O)c(N5CC(=O)NS5(=O)=O)c(F)c4c3)cc21` (centres unmarked) [Example 34] are ≥ 1000 nM and ≥ 1000 nM.
Turning to `O=C1CCC(N2Cc3cc(NCC(=O)N4CCC(C(=O)NCCOc5ccc6cc(O)c(N7CC(=O)NS7(=O)=O)c(F)c6c5)CC4)ccc3C2=O)C(=O)N1` (centres unmarked) [Example 35], the DC50 in experiment [1] and in experiment [2] was 200 to 1000 nM throughout.
For `O=C1CCC(N2Cc3c(NCC(=O)N4CC(C(=O)NCCOc5ccc6cc(O)c(N7CC(=O)NS7(=O)=O)c(F)c6c5)C4)cccc3C2=O)C(=O)N1` (centres unmarked) [Example 36], the DC50 in experiment [1] and in experiment [2] was 200 to 1000 nM in each case.
Turning to `CC(C)(Nc1cccc2c1C(=O)N(C1CCC(=O)NC1=O)C2=O)c1cn(CCOCCC(=O)NCCOc2ccc3cc(O)c(N4CC(=O)NS4(=O)=O)c(F)c3c2)nn1` (centres unmarked) [Example 37], the DC50 in experiment [1] and in experiment [2] was ≥ 1000 nM each time.
In the case of `O=C(CCOCCn1cc(C2(Nc3cccc4c3C(=O)N(C3CCC(=O)NC3=O)C4=O)CC2)nn1)NCCOc1ccc2cc(O)c(N3CC(=O)NS3(=O)=O)c(F)c2c1` (centres unmarked) [Example 38], the DC50 in experiment [1] and in experiment [2] was ≥ 1000 nM in each case.
Turning to `Cn1c(=O)n(C2CCC(=O)NC2=O)c2cccc(C3CCN(CCOCCC(=O)NCCOc4ccc5cc(O)c(N6CC(=O)NS6(=O)=O)c(F)c5c4)CC3)c21` (centres unmarked) [Example 39], the DC50 in experiment [1] and in experiment [2] was ≥ 1000 nM in each case.
Regarding `O=C(CN1CCC(n2cc(CNc3cccc4c3C(=O)N(C3CCC(=O)NC3=O)C4=O)nn2)CC1)NCCOc1ccc2cc(O)c(N3CC(=O)NS3(=O)=O)c(F)c2c1` (centres unmarked) [Example 40], the DC50 in experiment [1] is 200 to 1000 nM; in experiment [2] it was ≥ 1000 nM.
The corresponding values for `O=C(CCC1CCN(C(=O)CNc2cccc3c2C(=O)N(C2CCC(=O)NC2=O)C3=O)CC1)NCCOc1ccc2cc(O)c(N3CC(=O)NS3(=O)=O)c(F)c2c1` (centres unmarked) [Example 41] are 200 to 1000 nM and ≥ 1000 nM.
Taken in the same sequence, the figures for `O=C(CN1CC(n2cc(CNc3cccc4c3C(=O)N(C3CCC(=O)NC3=O)C4=O)nn2)C1)NCCOc1ccc2cc(O)c(N3CC(=O)NS3(=O)=O)c(F)c2c1` (centres unmarked) [Example 42] were 200 to 1000 nM and ≥ 1000 nM.
Taken in the same sequence, the figures for `O=C(CCOCCC(=O)N1CCN(c2ccc(NC3CCC(=O)NC3=O)cc2)CC1)NCCOc1ccc2cc(O)c(N3CC(=O)NS3(=O)=O)c(F)c2c1` (centres unmarked) [Example 43] were ≥ 1000 nM and ≥ 1000 nM.
For `O=C(CCOCCOCCn1cc(CNc2cccc3c2C(=O)N(C2CCC(=O)NC2=O)C3=O)nn1)NCCOc1ccc2cc(O)c(N3CC(=O)NS3(=O)=O)c(F)c2c1` (centres unmarked) [Example 44], the DC50 in experiment [1] and in experiment [2] was ≥ 1000 nM in each case.
In the case of `O=C(CCOCCNC(=O)CNc1cccc2c1CN(C1CCC(=O)NC1=O)C2=O)NCCOc1ccc2cc(O)c(N3CC(=O)NS3(=O)=O)c(F)c2c1` (centres unmarked) [Example 45], the DC50 is 200 to 1000 nM in experiment [1] and ≥ 1000 nM in experiment [2].
Taken in the same sequence, the figures for `O=C(CCOCCOCCNC(=O)CNc1cccc2c1CN(C1CCC(=O)NC1=O)C2=O)NCCOc1ccc2cc(O)c(N3CC(=O)NS3(=O)=O)c(F)c2c1` (centres unmarked) [Example 46] were ≥ 1000 nM and ≥ 1000 nM.
Taken in the same sequence, the figures for `O=C(CCCCCn1cc(CNc2cccc3c2C(=O)N(C2CCC(=O)NC2=O)C3=O)nn1)NCCOc1ccc2cc(O)c(N3CC(=O)NS3(=O)=O)c(F)c2c1` (centres unmarked) [Example 47] were ≥ 1000 nM and ≥ 1000 nM.
In the case of `O=C(CCOCCn1cc(CNc2cccc3c2C(=O)N(C2CCC(=O)NC2=O)C3=O)nn1)NCCOc1ccc2cc(O)c(N3CC(=O)NS3(=O)=O)c(F)c2c1` (centres unmarked) [Example 48], the DC50 in experiment [1] and in experiment [2] was ≥ 1000 nM in each case.
`Cn1c(=O)n(C2CCC(=O)NC2=O)c2ccc(C3CCN(CCNc4ccc5c(F)c(N6CC(=O)NS6(=O)=O)c(O)cc5c4)CC3)cc21` (centres unmarked) [Example 52]: the DC50 in experiment [1] and in experiment [2] was ≥ 1000 nM throughout.
`Cn1c(=O)n(C2CCC(=O)NC2=O)c2ccc(NC3CCN(CCNc4ccc5c(F)c(N6CC(=O)NS6(=O)=O)c(O)cc5c4)CC3)cc21` (centres unmarked) [Example 53]: the DC50 in experiment [1] was 200 to 1000 nM; in experiment [2] it was ≥ 1000 nM.
Taken in the same sequence, the figures for `Cn1c(=O)n(C2CCC(=O)NC2=O)c2ccc(C3CCN(C(=O)CNc4ccc5c(F)c(N6CC(=O)NS6(=O)=O)c(O)cc5c4)CC3)cc21` (centres unmarked) [Example 54] were 200 to 1000 nM and ≥ 1000 nM.
Consider `O=C1CCC(Nc2ccc(C3CCN(CC(=O)Nc4ccc5c(F)c(N6CC(=O)NS6(=O)=O)c(O)cc5c4)CC3)c(F)c2)C(=O)N1` (centres unmarked) [Example 55], for which the figures for the half-maximal degradation concentration (DC50) in experiment [1] and in experiment [2] were 200 to 1000 nM and ≥ 1000 nM, respectively.
Taken in the same sequence, the figures for `Cn1c(=O)n(C2CCC(=O)NC2=O)c2ccc(N3CCC4(CC3)CN(C(=O)c3ccc5c(F)c(N6CC(=O)NS6(=O)=O)c(O)cc5c3)C4)cc21` (centres unmarked) [Example 56] were ≥ 1000 nM and 200 to 1000 nM.
Taken in the same sequence, the figures for `O=C1CCC(N2Cc3c(NCc4cn(C5CN(C(=O)Nc6ccc7c(F)c(N8CC(=O)NS8(=O)=O)c(O)cc7c6)C5)nn4)cccc3C2=O)C(=O)N1` (centres unmarked) [Example 57] were 200 to 1000 nM and ≥ 1000 nM.
Consider `O=C1CCC(N2C(=O)c3cccc(NCc4cn(C5CN(CC(=O)Nc6ccc7c(F)c(N8CC(=O)NS8(=O)=O)c(O)cc7c6)C5)nn4)c3C2=O)C(=O)N1` (centres unmarked) [Example 58], for which the DC50 in experiment [1] was 200 to 1000 nM; in experiment [2], ≥ 1000 nM.
